# In patent US12202790B2, “Sulfonamide derivatives having selective Nox inhibiting activity” (GLUCOX BIOTECH AB, priority 2018, dated 2025):
# Tests used:
# Nox1 = Nox1 (Homo sapiens (Human), UniProt Q9Y5S8); assay: Amplex Red assay of Nox1 expressing CHO cells; assay type: cell-based; set-up: key to IC50 Nox1: The sign “—” stands for “inactive”
# Protocol: (§1) HEK293 overexpressing Nox4 (CJ Nox4) cells were purchased from Redoxis, Lund, Sweden. HEK 293 cells expressing Nox5, Nox3 (HEK TRex) and CHO cells expressing Nox1, were a kind gift from Vincent Jaque Center Medical Universitaire, Geneva, Switzerland. Nox2 expressed in isolated neutrophils were isolated from whole blood (human), as previously described (Anvari E, et al., Free Radic Res 2015; 49:1308-1318).
# CHO cells expressing Nox1 were cultured in DMEM 12 medium (DMEM/F12) supplemented with FBS (10%), penicillin (100 U/ml) and streptomycin (100 μg/ml) at 37° C. in air with 5% CO2.
# (§2) Reactive oxygen produced in whole cells or in membrane preparation of Nox1, Nox3, Nox4, Nox5 and xanthine oxidase and glucose oxidase were determined using Amplex Red as detection probe of formed H2O2. Amplex Red (10-acetyl-3,7-dihydroxyphenoxazine) in combination with HRP and co-factors reacts with H2O2 in a 1:1 stoichiometry to form a highly fluorescent resorufin excitated at 544 nm producing emission at 590 nm.
# (§3) Adherent cells (CHO, HEK) were collected by trypsinization, centrifuged, washed with HBSS, counted, and resuspended in HBSS. Cells were seeded in 96-well black flat bottom plates at a density of 50,000-100,000 cells/well. All compounds were dissolved in DMSO and concentrations ranging from 0.003 to 200 μM were tested in Nox cellular assays with a final concentration of DMSO of 1%. Cells were incubated at 37° C. with the compounds for 30 minutes before measurement. Cells expressing Nox1 and Nox2 were activated with the PKC activator PMA (0.1 μM). Nox5 was activated with the Ca2+ ionophore ionomycin (1 μM) and further enforced with PMA. The CJ HEK 293 cells overexpressed Nox4 constitutively. In the HTS screen HEK 293 TRex was used and tetracycline ([…]) was added 18 h before measurement to induce Nox4 expression. Production of hydrogen peroxide by Nox in intact cells was measured using Amplex Red fluorescence as described by Jaquet V, et al., Br J Pharmacol 2011; 164:507-520. Assay reagents including HRP ([…]) and Amplex Red (50 μM) were added to initiate production of hydrogen peroxide. Fluorescence was read in a fluorescence plate reader at 37° C. every minute between 30-60 minutes.
# Nox5 = Nox5 (Homo sapiens (Human), UniProt Q96PH1); assay: Amplex Red assay of Nox5 expressing HEK cells; assay type: cell-based; set-up: key: The sign “—” stands for “inactive”
# Nox5, sequence (Q96PH1 whole entry): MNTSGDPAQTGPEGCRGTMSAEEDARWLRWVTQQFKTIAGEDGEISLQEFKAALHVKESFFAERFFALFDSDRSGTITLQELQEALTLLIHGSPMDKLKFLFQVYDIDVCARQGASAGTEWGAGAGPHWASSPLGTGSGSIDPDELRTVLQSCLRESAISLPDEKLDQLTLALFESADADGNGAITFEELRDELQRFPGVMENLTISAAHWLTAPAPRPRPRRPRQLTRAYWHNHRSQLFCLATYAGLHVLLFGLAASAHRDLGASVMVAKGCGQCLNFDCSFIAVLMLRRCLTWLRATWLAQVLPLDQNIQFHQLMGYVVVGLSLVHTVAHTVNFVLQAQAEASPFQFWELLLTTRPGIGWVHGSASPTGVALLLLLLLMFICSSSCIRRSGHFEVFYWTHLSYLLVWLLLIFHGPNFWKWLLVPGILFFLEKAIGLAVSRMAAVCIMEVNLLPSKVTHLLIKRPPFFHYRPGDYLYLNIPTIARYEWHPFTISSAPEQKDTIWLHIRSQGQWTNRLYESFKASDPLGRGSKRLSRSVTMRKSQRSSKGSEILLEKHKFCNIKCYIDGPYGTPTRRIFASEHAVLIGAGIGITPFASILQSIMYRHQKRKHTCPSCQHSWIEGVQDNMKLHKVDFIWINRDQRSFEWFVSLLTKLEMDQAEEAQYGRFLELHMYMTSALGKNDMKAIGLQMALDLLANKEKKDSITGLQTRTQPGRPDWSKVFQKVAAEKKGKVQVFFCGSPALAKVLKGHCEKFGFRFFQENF
# From the text: as §1
# HEK293T cells expressing tetracycline-inducible human (Nox3 or Nox4) and HEK293 cells stably expressing human Nox5 were generated as described previously (Serrander et al., 2007a,b). HEK cells were cultured in Dulbecco's modified Eagle medium (DMEM) with 4.5 g/l glucose, supplemented with FBS (10%), penicillin (100 U/ml) and streptomycin […] at 37° C. in air with 5% CO2.
# as §2, §3
# xanthine oxidase = xanthine oxidase (Bos taurus (Bovine), UniProt P80457); assay: Amplex Red xanthine oxidase (XO) assay; assay type: biochemical; set-up: key: The sign “—” stands for “inactive”
# xanthine oxidase, sequence (P80457 whole entry): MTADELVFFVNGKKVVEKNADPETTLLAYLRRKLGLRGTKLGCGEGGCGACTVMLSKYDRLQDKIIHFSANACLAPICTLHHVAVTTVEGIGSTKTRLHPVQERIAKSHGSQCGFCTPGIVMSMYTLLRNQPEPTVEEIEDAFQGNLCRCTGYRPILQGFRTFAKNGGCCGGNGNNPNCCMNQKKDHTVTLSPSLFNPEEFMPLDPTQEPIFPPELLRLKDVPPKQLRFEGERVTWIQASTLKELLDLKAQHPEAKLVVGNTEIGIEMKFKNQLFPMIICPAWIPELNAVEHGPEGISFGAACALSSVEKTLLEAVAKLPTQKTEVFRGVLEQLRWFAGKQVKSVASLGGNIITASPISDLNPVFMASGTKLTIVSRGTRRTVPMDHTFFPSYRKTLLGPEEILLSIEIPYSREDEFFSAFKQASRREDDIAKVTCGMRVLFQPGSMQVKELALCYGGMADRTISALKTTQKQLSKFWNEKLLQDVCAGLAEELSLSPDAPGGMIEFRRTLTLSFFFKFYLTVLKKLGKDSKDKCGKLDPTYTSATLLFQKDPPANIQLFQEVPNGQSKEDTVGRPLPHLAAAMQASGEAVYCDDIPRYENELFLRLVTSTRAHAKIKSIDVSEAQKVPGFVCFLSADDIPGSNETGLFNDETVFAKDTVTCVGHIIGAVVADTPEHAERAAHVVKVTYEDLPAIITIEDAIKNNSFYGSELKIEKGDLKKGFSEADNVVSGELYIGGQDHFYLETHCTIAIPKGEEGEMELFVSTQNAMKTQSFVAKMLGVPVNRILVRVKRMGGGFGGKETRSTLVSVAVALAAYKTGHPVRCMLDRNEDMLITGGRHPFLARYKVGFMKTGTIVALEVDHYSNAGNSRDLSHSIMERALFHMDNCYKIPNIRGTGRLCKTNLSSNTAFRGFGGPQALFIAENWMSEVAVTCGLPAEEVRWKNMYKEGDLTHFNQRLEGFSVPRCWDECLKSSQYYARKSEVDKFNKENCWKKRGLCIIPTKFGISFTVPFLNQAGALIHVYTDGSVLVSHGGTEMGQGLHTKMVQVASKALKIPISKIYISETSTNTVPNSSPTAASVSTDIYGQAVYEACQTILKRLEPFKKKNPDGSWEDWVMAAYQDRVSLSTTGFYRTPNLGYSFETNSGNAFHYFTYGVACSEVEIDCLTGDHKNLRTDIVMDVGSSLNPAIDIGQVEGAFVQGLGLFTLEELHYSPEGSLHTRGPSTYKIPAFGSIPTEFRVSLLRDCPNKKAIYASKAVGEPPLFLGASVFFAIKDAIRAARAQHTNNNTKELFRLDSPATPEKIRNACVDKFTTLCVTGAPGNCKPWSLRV
# Protocol: as §2
# The assay was designed for Amplex Red analysis of production of hydrogen peroxide. Test compounds were incubated with 5 mU/ml bovine derived xanthine oxidase for 15 min at room temperature followed by the addition of substrate and detection mix (final concentrations of 0.2 U/ml HRP, 5 μM hypoxanthine, and 50 μM Amplex Red). As described by Hirano K et al., Antioxid Redox Signal 2015 10; 23:358-374, production of hydrogen peroxide was followed by fluorescence detection during 30 min at 37° C. in a plate reader that use excitation at 544 nm producing emission at 590 nm.
# [1] = Determination of chemical stability; assay type: physicochemical
# Protocol: Test compound was pipetted into an HPLC vial, from 10 mM DMSO, to yield 2 μM final concentration in three separate vials containing buffers with different pH. At reaction start the three different buffers were mixed with isopropanol (1:2, buffer:isopropanol). The buffers used were: pH 2 (H3PO4/KH2PO4 10 mM), pH 7.4 (KH2PO4/K2HPO4 10 mM) and pH 10 (Glycine/NaOH 10 mM). Immediately (<1 minute) after buffer or buffer/isopropanol addition, a 100 μl aliquot was added to a separate plate containing 100 μl acetonitrile:H2O (60:40) and Warfarin (internal standard, IS), sealed and frozen at −20° C. This test was made for 2 h and 20 h. Analysis was performed on a XEVO TQ mass spectrometer coupled to an Acquity UPLC system in ESI^+MRM mode, separation on a BEH C18 2×50 mm column.
# [2] = Microsomal metabolic stability, mouse; assay type: in vitro ADME; conditions: pooled liver microsomes, pH 7.4, read-out: Metab. stab, mouse t1/2
# Protocol: The microsomal metabolic stability assay utilizes pooled human, or animal (mouse) species, liver microsomes with supplemented cofactor (NADPH) to primarily facilitate cytochrome P450 (CYP) reactivity against target compound. Test compound (1 μM incubation concentration) and microsomes (0.5 mg/ml incubation concentration) were diluted in 0.1 M phosphate buffer, pH 7.4, in a volume of 150 μl. The reaction was initiated with addition of NADPH (1 mM). The incubation times were 0, 5, 15, 40 min and the reaction was quenched, at each time point, by addition of 100 μl acetonitrile containing Warfarin as IS. The plate was then sealed, centrifuged and frozen at −20 C until LC-MS/MS analysis.
# [3] = Plasma protein binding, human; assay type: in vitro ADME; conditions: 10 μM in plasma, equilibrium dialysis 4 h, read-out: fu % human plasma protein
# Protocol: Example compounds were incubated at 10 μM in plasma and then equilibrium dialysed for 4 h, using a rapid equilibrium device. Protein binding (fu %) was determined by LS/MS as previously described (Anvari E, et al., vide supra).
# Nox1, sequence (Q9Y5S8 whole entry): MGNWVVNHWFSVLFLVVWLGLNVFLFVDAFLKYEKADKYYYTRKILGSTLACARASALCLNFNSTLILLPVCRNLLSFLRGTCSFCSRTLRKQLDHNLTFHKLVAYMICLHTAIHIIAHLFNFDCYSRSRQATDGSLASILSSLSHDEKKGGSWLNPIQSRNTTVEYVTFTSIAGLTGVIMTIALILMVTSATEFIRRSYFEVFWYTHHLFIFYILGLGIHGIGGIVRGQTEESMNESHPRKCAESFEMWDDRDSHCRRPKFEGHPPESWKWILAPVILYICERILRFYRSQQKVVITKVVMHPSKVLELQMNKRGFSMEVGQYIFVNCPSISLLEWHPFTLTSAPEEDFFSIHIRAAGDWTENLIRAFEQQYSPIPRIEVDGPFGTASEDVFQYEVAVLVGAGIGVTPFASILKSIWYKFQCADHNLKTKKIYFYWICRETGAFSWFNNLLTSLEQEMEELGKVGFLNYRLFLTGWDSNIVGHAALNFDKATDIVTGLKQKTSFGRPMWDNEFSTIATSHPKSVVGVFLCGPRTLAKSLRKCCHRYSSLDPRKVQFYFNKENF
# Nox1, sequence (P13498 2-195 partner): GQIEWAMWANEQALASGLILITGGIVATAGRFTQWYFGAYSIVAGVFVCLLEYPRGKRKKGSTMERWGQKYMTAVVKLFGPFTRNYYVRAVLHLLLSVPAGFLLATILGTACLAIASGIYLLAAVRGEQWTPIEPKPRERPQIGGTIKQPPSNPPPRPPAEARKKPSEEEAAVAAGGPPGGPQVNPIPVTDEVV
IC50 Nox1 (Nox1),IC50 Nox5 (Nox5),IC50 XO (xanthine oxidase),Chem. stab. pH 7.4 [1],half-life at 1 μM [2] [min],"fraction unbound at 4 h, 10 μM [3]",SMILES
—,—,—,stable,6 to 20,0.0002,"Cc1ccccc1C(F)CNS(=O)(=O)c1c(Cl)cc(Br)cc1Cl (racemic) [Example 35, 4-bromo-2,6-dichloro-N-[2-fluoro-2-(2-methylphenyl)ethyl]benzene-1-sulfonamide]"
—,—,—,stable,2 to 4,0.011,"Cc1cc(C)c(S(=O)(=O)NCCc2ccccc2O)c(C)c1 [Example 37, N-[2-(2-hydroxyphenyl)ethyl]-2,4,6-trimethylbenzene-1-sulfonamide]"
—,—,—,stable,2 to 4,0.0062,"O=S(=O)(NCCc1ccccc1O)c1c(Cl)cc(Br)cc1Cl [Example 38, 4-bromo-2,6-dichloro-N-[2-(2-hydroxyphenyl)ethyl]benzenesulfonamide]"
—,—,—,stable,7,0.015,"Cc1cc(Cl)c(S(=O)(=O)NCCc2ccccc2O)c(C)c1O [Example 44, 6-chloro-3-hydroxy-N-[2-(2-hydroxyphenyl)ethyl]-2,4-dimethyl-benzenesulfonamide]"
—,—,—,stable,2,0.0026,"COc1cc(C)c(S(=O)(=O)NCCc2ccccc2Cl)c(C)c1 [Example 46, N-[2-(2-chlorophenyl)ethyl]-4-methoxy-2,6-dimethyl-benzenesulfonamide]"
—,—,—,stable,1,0.03,"COc1cc(C)c(S(=O)(=O)NCCc2ccccc2O)c(C)c1 [Example 47, N-[2-(2-hydroxyphenyl)ethyl]-4-methoxy-2,6-dimethyl-benzenesulfonamide]"
—,—,—,stable,16,0.011,"Cc1cc(O)cc(C)c1S(=O)(=O)NCCc1ccccc1O [Example 48, 4-hydroxy-N-[2-(2-hydroxyphenyl)ethyl]-2,6-dimethyl-benzenesulfonamide]"

SMILES,IC50 Nox1 (Nox1),IC50 Nox5 (Nox5),IC50 XO (xanthine oxidase),Chem. stab. pH 7.4 [1],half-life at 1 μM [2] [min],"fraction unbound at 4 h, 10 μM [3]"
"Cc1ccccc1CCNS(=O)(=O)c1c(C)cccc1Cl [Example 11, 2-chloro-6-methyl-N-[2-(2-methylphenyl)ethyl]benzene-1-sulfonamide]",—,—,—,,,
"Cc1ccccc1CCNS(=O)(=O)c1c(Cl)cc(Br)cc1Cl [Example 17, 4-bromo-2,6-dichloro-N-[2-(2-methylphenyl)ethyl]benzene-1-sulfonamide]",—,—,—,stable,2 to 3,0.0002
"O=S(=O)(NCCc1ccccc1Cl)c1c(Cl)cc(C2CC2)cc1Cl [Example 26, 2,6-dichloro-N-[2-(2-chlorophenyl)ethyl]-4-cyclopropylbenzene-1-sulfonamide]",—,—,—,,,
